Results reported in patent publication US20100286081A1, “5-AMINO-3-(2',3'-DI-O-ACETYL-BETA-D-RIBOFURANOSYL)-3H-THIAZOLO[4,5-D] PYRIMIDIN-2-OCE SALTS AND CRYSTALLINE FORMS” (Anadys Pharmaceuticals Inc., priority 2006, published 2010).

How the values were obtained:
[1] = Water sorption curve (DVS analysis at 25° C.); type: physicochemical; details: for Weight change in %: DVS analysis at 25° C.
From the text: Water Sorption Curve of 5-amino-3-(2′,3′-di-O-acetyl-beta-D-ribofuranosyl)-3H-thiazolo[4,5-d]pyrimidin-2-one Amorphous Base (FIG. 6)
Water Sorption Curve of 5-amino-3-(2′,3′-di-O-acetyl-beta-D-ribofuranosyl)-3H-thiazolo[4,5-d]pyrimidin-2-one Maleate Salt (FIG. 7)

[2] = Stability of polymorphic form; type: physicochemical

| SMILES | Hygroscopicity (in words) [1] | Weight change in % ([1]; 0-20% r.h.) | Weight change in % ([1]; 0-40% r.h.) | Weight change in % ([1]; 0-60% r.h.) | Weight change in % ([1]; 0-80% r.h.) | Weight change in % ([1]; 0-95% r.h.) | Stability of polymorphic form (in words) [2] |
| --- | --- | --- | --- | --- | --- | --- | --- |
| CC(=O)O[C@@H]1[C@H](OC(C)=O)[C@@H](CO)O[C@H]1n1c(=O)sc2cnc(N)nc21 [5-Amino-3-(2′,3′-di-O-acetyl-beta-D-ribofuranosyl)-3H-thiazolo[4,5-d]pyrimidin-2-one] | hygroscopic | 0.50% | 0.86% | 1.55% | 3.07% | 4.68% |  |
| CC(=O)O[C@@H]1[C@H](OC(C)=O)[C@@H](CO)O[C@H]1n1c(=O)sc2cnc(N)nc21.O=C(O)/C=C\C(=O)O [5-amino-3-(2′,3′-di-O-acetyl-beta-D-ribofuranosyl)-3H-thiazolo[4,5-d]pyrimidin-2-one maleate] |  | 0.08% | 0.17% | 0.23% | 0.32% | 0.31% |  |
| CC(=O)O[C@@H]1[C@H](OC(C)=O)[C@@H](CO)O[C@H]1n1c(=O)sc2cnc(N)nc21.O=C(O)/C=C\C(=O)O [Form B, 5-Amino-3-(2′,3′-di-O-acetyl-beta-D-ribofuranosyl)-3H-thiazolo[4,5-d]pyrimidin-2-one maleate] |  |  |  |  |  |  | particularly stable polymorphic form |
